The record followed here is patent US20240091138A1, “TOPICAL C[…]” (EGIS GYÓGYSZERGYÁR ZRT., priority 2021, published 2024).

The nature of one data set: Solubility of pregabalin. The settings on record: in any solvents.
The next data set concerns Wistar rats. In words: Chronic constriction injury (CCI) rat model of neuropathy, paw withdrawal threshold with electronic von Frey. The settings on record: 16.66 mg/kg. It counts as in vivo. From the text: Furthermore, based on the article Bennett G J, at al (Pain, A peripheral mononeuropathy in rat that produces disorders of pain sensation like those seen in man. 1988 April; 33(1):87-107) we have developed a method for the examination of the compositions of the present invention. Thus, we have examined the compositions according to the present invention also with a different model for measuring the alleviation of the peripheral neuropathic pain also. Namely, we have carried out examinations on rats using Chronic constriction injury (CCI) model. Three weeks following nerve injury rats were assessed for hind paw mechanical withdrawal thresholds. The paw withdrawal threshold (PWT) was determined with an Electronic von Frey device according to the modified up-down method of Dixon (Efficient analysis of experimental observations, Annu Rev Pharmacol Toxicol. 1980; 20:441-62). […] The method and results are shown in example 3 and on FIG. 9.
Thus, the compositions of the present invention are effective in the treatment of neuropathic pain. […]
Briefly, under isoflurane anesthesia small blunt dissection was made into the skin of rat right thigh then three loosely constrictive ligatures were placed around common sciatic nerve (chronic constriction injury CCI). Three weeks following nerve injury rats were assessed for hind paw mechanical withdrawal thresholds. […]

A short description of data set [1]: Pharmacokinetic studies (blood levels of pregabalin). The settings on record: during topical treatment.

With `CC(C)C[C@H](CN)CC(=O)O` [pregabalin], in “Solubility of pregabalin”, the Solubility result is recorded as “poor”. For the same compound, the “reduction of hypersensitivity after oral administration” value with Wistar rats is “not able to reduce hypersensitivity”. The “amount of pregabalin entering the bloodstream” value in data set [1] is given as “very small amounts”.
